Test results taken from ChEMBL document CHEMBL5634137, “2,4-Diacetylphloroglucinol (DAPG) derivatives rapidly eradicate methicillin-resistant staphylococcus aureus without resistance development by disrupting membrane” (Eur J Med Chem, 2023).
≈ marks a conversion by molar mass, not a printed value.

What was measured:
[1] = tested on: Staphylococcus aureus; assay: Antibacterial activity against methicillin-resistant Staphylococcus aureus ATCC 4330 assessed as inhibition of bacterial growth incubated for 24 hrs by broth dilution method; type: functional
[2] = tested on: Staphylococcus aureus; assay: Antibacterial activity against methicillin-resistant Staphylococcus aureus ATCC 3392 assessed as inhibition of bacterial growth incubated for 24 hrs by broth dilution method; type: functional
[3] = tested on: Staphylococcus aureus; assay: Antibacterial activity against Methicillin-resistant Staphylococcus aureus USA300 assessed as inhibition of bacterial growth incubated for 24 hrs by broth dilution method; type: functional
[4] = tested on: Escherichia coli; assay: Antibacterial activity against Escherichia coli ATCC 11775 assessed as inhibition of bacterial growth incubated for 24 hrs by broth dilution method; type: functional
[5] = tested on: Klebsiella pneumoniae; assay: Antibacterial activity against Klebsiella pneumoniae […] assessed as inhibition of bacterial growth incubated for 24 hrs by broth dilution method; type: functional
[6] = tested on: Pseudomonas aeruginosa; assay: Antibacterial activity against Pseudomonas aeruginosa […] assessed as inhibition of bacterial growth incubated for 24 hrs by broth dilution method; type: functional
[7] = tested on: Staphylococcus aureus; assay: Bactericidal against methicillin-resistant Staphylococcus aureus ATCC 4330 assessed as inhibition of bacterial growth incubated for 24 hrs by broth dilution method; type: functional
[8] = tested on: Staphylococcus aureus; assay: Bactericidal activity against methicillin-resistant Staphylococcus aureus ATCC 3392 assessed as inhibition of bacterial growth incubated for 24 hrs by broth dilution method; type: functional
[9] = tested on: Staphylococcus aureus; assay: Selectivity index, ratio of MBC for bactericidal against methicillin-resistant Staphylococcus aureus ATCC 4330 to MIC for antibacterial activity against methicillin-resistant Staphylococcus aureus ATCC 4330; type: functional
[10] = tested on: Staphylococcus aureus; assay: Selectivity index, ratio of MBC for bactericidal against methicillin-resistant Staphylococcus aureus ATCC 3392 to MIC for antibacterial activity against methicillin-resistant Staphylococcus aureus ATCC 3392; type: functional
[11] = Cytotoxicity against mouse RAW264.7 cells assessed as survival rate incubated for 24 hrs by MTT assay; type: toxicity, cell-based; parameters: concentration or dose not given beside the values; details: read-out: Survival
[12] = Cytotoxicity against human L02 cells assessed as survival rate incubated for 24 hrs by MTT assay; type: toxicity, cell-based; parameters: concentration or dose not given beside the values; details: read-out: Survival

Row | Structure (SMILES) | MIC [1] | MIC [2] | MIC [3] | MIC [4] | MIC [5] | MIC [6] | MBC [7] | MBC [8] | Selectivity Index [9] | Selectivity Index [10] | viability at 24 h [11] | viability at 24 h [12]
1 | CC(C)(C)CC(=O)c1c(O)cc(O)cc1O | 64 µg/mL (≈ 285 µM) | > 64 µg/mL | – | – | – | – | – | – | – | – | – | –
2 | CCCCC(=O)c1c(O)cc(O)c(C(=O)C(C)C)c1O | 2 µg/mL (≈ 7.13 µM) | 2 µg/mL (≈ 7.13 µM) | 1 µg/mL (≈ 3.57 µM) | > 64 µg/mL | > 64 µg/mL | > 64 µg/mL | 8 µg/mL (≈ 28.5 µM) | 8 µg/mL (≈ 28.5 µM) | 4 | 4 | 76% | 75%
3 | CCCCCCCCCCCCCCCC(=O)c1c(O)cc(O)cc1O | > 64 µg/mL | > 64 µg/mL | – | – | – | – | – | – | – | – | – | –
4 | CCCCCC(=O)c1c(O)cc(O)cc1O | 32 µg/mL (≈ 143 µM) | 32 µg/mL (≈ 143 µM) | – | – | – | – | – | – | – | – | – | –
5 | CC(C)(C)CC(=O)c1c(O)cc(O)c(C(=O)CC(C)(C)C)c1O | 0.5 µg/mL (≈ 1.55 µM) | 0.5 µg/mL (≈ 1.55 µM) | 0.5 µg/mL (≈ 1.55 µM) | > 64 µg/mL | > 64 µg/mL | > 64 µg/mL | 4 µg/mL (≈ 12.4 µM) | 4 µg/mL (≈ 12.4 µM) | 8 | 8 | – | –
6 | CCCCC(=O)c1c(O)cc(O)c(C(C)=O)c1O | 4 µg/mL (≈ 15.9 µM) | 8 µg/mL (≈ 31.7 µM) | – | – | – | – | – | – | – | – | – | –
7 | CCCCCCCC(=O)c1c(O)cc(O)c(C(=O)CCCCCCC)c1O | 1 µg/mL (≈ 2.64 µM) | 2 µg/mL (≈ 5.28 µM) | 2 µg/mL (≈ 5.28 µM) | > 64 µg/mL | > 64 µg/mL | > 64 µg/mL | 1 µg/mL (≈ 2.64 µM) | 2 µg/mL (≈ 5.28 µM) | 1 | 1 | – | –
8 | CCCCCCCCCCCCCCCC(=O)c1c(O)cc(O)c(C(=O)CCCCCCCCCCCCCCC)c1O | > 64 µg/mL | > 64 µg/mL | – | – | – | – | – | – | – | – | – | –
9 | O=C(c1c(O)cc(O)cc1O)C1CCCCC1 | 64 µg/mL (≈ 271 µM) | > 64 µg/mL | – | – | – | – | – | – | – | – | – | –
10 | CCCCCCCCCC(=O)c1c(O)cc(O)c(C(=O)CCCCCCCCC)c1O | 8 µg/mL (≈ 18.4 µM) | 8 µg/mL (≈ 18.4 µM) | – | – | – | – | – | – | – | – | – | –
11 | O=C(c1c(O)cc(O)cc1O)C1CCCC1 | 64 µg/mL (≈ 288 µM) | 64 µg/mL (≈ 288 µM) | – | – | – | – | – | – | – | – | – | –
12 | COc1cc(O)c(C(C)=O)c(OC)c1C(C)=O | > 64 µg/mL | > 64 µg/mL | – | – | – | – | – | – | – | – | – | –
13 | CC1(C)S[C@@H]2[C@H](NC(=O)[C@H](N)c3ccc(O)cc3)C(=O)N2[C@H]1C(=O)O [AMOXICILLIN] | – | – | 128 µg/mL (≈ 350 µM) | – | – | – | – | – | – | – | – | –
14 | CC(C)CCC(=O)c1c(O)cc(O)cc1O | 32 µg/mL (≈ 143 µM) | 64 µg/mL (≈ 285 µM) | – | – | – | – | – | – | – | – | – | –
15 | O=C(c1c(O)cc(O)c(C(=O)C2CCCCC2)c1O)C1CCCCC1 | 1 µg/mL (≈ 2.89 µM) | 0.5 µg/mL (≈ 1.44 µM) | 0.5 µg/mL (≈ 1.44 µM) | > 64 µg/mL | > 64 µg/mL | > 64 µg/mL | 8 µg/mL (≈ 23.1 µM) | 2 µg/mL (≈ 5.77 µM) | 8 | 4 | – | –
16 | CCCCC(=O)c1c(O)cc(O)cc1O | > 64 µg/mL | > 64 µg/mL | – | – | – | – | – | – | – | – | – | –
17 | O=C(c1c(O)cc(O)cc1O)C1CCC1 | 32 µg/mL (≈ 154 µM) | 32 µg/mL (≈ 154 µM) | – | – | – | – | – | – | – | – | – | –
18 | CCCCC(=O)c1c(O)cc(O)c(C(=O)C(C)CC)c1O (stereo not given) | 1 µg/mL (≈ 3.4 µM) | 1 µg/mL (≈ 3.4 µM) | 1 µg/mL (≈ 3.4 µM) | > 64 µg/mL | > 64 µg/mL | > 64 µg/mL | 4 µg/mL (≈ 13.6 µM) | 8 µg/mL (≈ 27.2 µM) | 4 | 8 | 76% | 75%
19 | CC(=O)c1c(O)cc(O)cc1O [2,4,6-TRIHYDROXYACETOPHENONE] | > 64 µg/mL | > 64 µg/mL | – | – | – | – | – | – | – | – | – | –
20 | O=C(c1c(O)cc(O)c(C(=O)C2CC2)c1O)C1CC1 | 8 µg/mL (≈ 30.5 µM) | 8 µg/mL (≈ 30.5 µM) | – | – | – | – | – | – | – | – | – | –
21 | CC(C)C(=O)c1c(O)cc(O)cc1O [PHLOROISOBUTYROPHENONE] | 32 µg/mL (≈ 163 µM) | 64 µg/mL (≈ 326 µM) | – | – | – | – | – | – | – | – | – | –
22 | O=C(c1c(O)cc(O)cc1O)C1CC1 | 16 µg/mL (≈ 82.4 µM) | 32 µg/mL (≈ 165 µM) | – | – | – | – | – | – | – | – | – | –
23 | CC(=O)c1c(O)cc(O)c(C(C)=O)c1O | 8 µg/mL (≈ 38.1 µM) | 4 µg/mL (≈ 19 µM) | 8 µg/mL (≈ 38.1 µM) | > 64 µg/mL | > 64 µg/mL | > 64 µg/mL | 32 µg/mL (≈ 152 µM) | 64 µg/mL (≈ 304 µM) | 4 | 16 | – | –
24 | O=C(Cc1ccccc1)c1c(O)cc(O)c(C(=O)Cc2ccccc2)c1O | 0.5 µg/mL (≈ 1.38 µM) | 1 µg/mL (≈ 2.76 µM) | 1 µg/mL (≈ 2.76 µM) | 64 µg/mL (≈ 177 µM) | > 64 µg/mL | > 64 µg/mL | 8 µg/mL (≈ 22.1 µM) | 8 µg/mL (≈ 22.1 µM) | – | 8 | – | –
25 | CCCCCCCCC(=O)c1c(O)cc(O)c(C(=O)CCCCCCCC)c1O | 2 µg/mL (≈ 4.92 µM) | 4 µg/mL (≈ 9.84 µM) | – | – | – | – | – | – | – | – | – | –
26 | CCCCCCC(=O)c1c(O)cc(O)cc1O | 16 µg/mL (≈ 67.1 µM) | 16 µg/mL (≈ 67.1 µM) | – | – | – | – | – | – | – | – | – | –
